“Also recorded” adds a separate entry of the source.
Experiments:
[1] = tested on: OPN, MMP9, and Cathepsin K (CTSK); experiment: OPN, MMP9 and Cathepsin K expression in osteoclasts (qRT-PCR); type: cell-based, murine; conditions: osteoclasts with breast cancer conditioned medium; relative to DM
Description: Quantitative RT-PCR (qRT-PCR)—cDNA was generated using High Capacity Reverse Transcriptase Kit (Applied Biosystems, Foster City, Calif.). Real time PCR was performed in two cycles using a BioRad iQ5 Real-Time Detection system (Bio-Rad, Hercules, Calif.): the first cycle of 95° C. for 10 mins followed by 40 repeats of the second cycle comprising 95° C. for 15 sec followed by 60° C. for 1 min. All reactions were done in triplicate. Transcript levels were normalized to GAPDH levels (dCT) which was used to calculate changes in gene expression (2-ddCT). […] Following the experimental regime as described herein (for Osteoclast differentiation/activity) RNA was isolated using Trizol (Invitrogen) and assessed as described herein. The details of the primers used were as follows: OPN (Spp1; Mm00436767_m1), Matrixmetalloprotease 9 (MMP9; Mm00600163_m1), Cathepsin K (Ctsk; Mm00484036_m1), SHH (Hs00179843_m1), GLI1 (Hs01110766_m1), OPN (Hs00959010_m1), hGAPDH (Hs99999905_m1) and GAPDH (Mm99999915_g1).

RAW264.7 cells [2] = experiment: Osteoclast resorption activity (OAAS plates); type: cell-based, murine
Description: Osteoclast differentiation and activity assays—Tartarate-resistant acid phosphatase (TRAP) assay was conducted for RAW 264.7 following the manufacturer's protocol (Sigma, St. Louis, Mo.). This assay was indicative of the extent of differentiation. OAAS plates (Osteogenic Core Technologies, Choongnam, Republic of Korea) were utilized to measure osteoclastic activity. RAW 264.7 cells (25×103) were inoculated in 48-well plates. Cells were treated with serum-free conditioned media from breast cancer cells or 100 nM SHH or 100 ng/ml OPN on the following day. Media was changed every two days and the experiments were terminated either on day 6 (day 7 for knockdown experiments, with transfections being done on the sixth day). At the completion, cells were detached with 5% sodium hypochlorite and the wells were observed under a Nikon Eclipse TS 100 microscope at 10× magnification. […] The percentage of area resorbed was calculated using the NIS-Elements BR. 3.1 software.

c-jun = c-jun and c-fos protein expression and c-jun phosphorylation in A2780-CP70 cells (Western blot); type: cell-based, human; conditions: cyclopamine
Description: c-jun protein expression was assessed in cisplatin-treated A2780-CP70 cells using Western blot analysis.
Protein expression of c-fos and phosphorylation of c-jun in cyclopamine-treated A2780-CP70 cells was assessed using Western blot analysis. Protein levels for c-jun, c-fos, phosphorylated c-jun (Ser 63), phosphorylated c-jun (Ser 73), and phosphorylated c-jun (Thr 91, Thr 93) were tested in cytosolic, nuclear, and whole cell fractions at 0 hr, 6 hr, 24 hr, 48 hr, and 72 hr. Internal controls for cytosolic and nuclear fractions included α-tubulin and histone deacetylase 3.
Phosphorylation of c-jun in A2780-CP70 cells transfected with anti-GLI1 shRNA construct was assessed using Western blot analysis. Protein levels for c-jun, phosphorylated c-jun (Ser 63), phosphorylated c-jun (Ser 73), and phosphorylated c-jun (Thr 91, Thr 93) were examined at 0 hr, 6 hr, 24 hr, 48 hr, and 72 hr.

RAW264.7 cells [3] = experiment: Osteoclast differentiation (TRAP assay); type: cell-based, murine
Description: Cell lines—Human metastatic breast cancer cells, MDA-MB-231, were cultured in Dulbecco's Modified Eagle's Medium (DMEM/F12; Invitrogen, Carlsbad, Calif.), supplemented with 2 mM L-glutamine, 1 mM sodium pyruvate, 0.02 mM non-essential amino acids, 5% fetal bovine serum, FBS (Atlanta Biologicals, Norcross, Ga.), without antibiotics or antimycotics (cDME/F12). SUM1315 and SUM159 cells (DiMeo, T. A., et al. (2009) Cancer Res 69, 5364-5373) (Asterand, Detroit, Mich.) were cultured in DMEM/F12 supplemented with […], 5% FBS (Atlanta Biologicals) and either 10 ng/ml EGF or 1 ng/ml hydrocortisone, without antibiotics or antimycotics. The SUM1315 cells are derived from a metastasis in a patient with infiltrating ductal carcinoma; SUM159 cells were derived from a primary breast tumor with metaplastic carcinoma. RAW264.7 (ATCC, TIB 71) cells, a murine pre-osteoclastic line capable of differentiation and […] in culture (in presence of RANKL and MCSF), were grown in DMEM with L-glutamine (ATCC, 30-2002) supplemented with 10% FBS. A 2× differentiation medium (DM) was formulated for the RAW 264.7 cells comprising RAW264.7 growth medium supplemented with 20% FBS, RANKL (100 ng/ml) and M-CSF (40 ng/ml) (Matsubara, T., et al. J Bone Miner Res 25, 1068-1076). Conditioned media was harvested from breast cancer cells and mixed in a 1:1 ratio with double strength differentiation medium to assess the effect on osteoclast differentiation. 1×DM was used as control or wherever SHH (R & D Systems, Minneapolis, Minn.) or OPN (R & D Systems) was used alone. The medium on the RAW264.7 cells was replenished every 48 hours. In order to assess the effect of secreted Hh ligands, the neutralizing 5E1 antibody was used (Developmental Studies Hybridoma Bank, at the University of Iowa, Iowa). […] Medium was supplemented with 5E1 (2.5 μg/ml) and was changed on alternate days until the end of the experiment. The effect of OPN on osteoclast activity was assessed by transfecting an OPN shRNA-expressing construct on day 6 post-induction of differentiation. Fresh DM was added the following day and cells were allowed to grow for another 12 hours before termination of experiment. GLI1 expression was silenced in the SUM1315 cells using shRNA targeting GLI1 into pSuperior. gfp+neo (Oligoengine, WA, USA). Silencing of OPN expression was done using OPN-targeting shRNA cloned into pSuper (Oligoengine)
Osteoclast differentiation and activity assays—Tartarate-resistant acid phosphatase (TRAP) assay was conducted for RAW 264.7 following the manufacturer's protocol (Sigma, St. Louis, Mo.). This assay was indicative of the extent of differentiation. […] The percentage of area resorbed was calculated using the NIS-Elements BR. […]

OPN mRNA = experiment: OPN transcript levels by real-time RT-PCR in metastatic melanoma cell lines; type: cell-based, human; conditions: for levels of OPN mRNA: cyclopamine 24 h, qRT-PCR
Description: This medium was replaced with fresh cyclopamine-containing medium after 12 h. […] RNA was assessed by real-time RT-PCR for OPN transcript levels.
Stable vector only and non-targeting (scrambled control) transfectants were also generated. Stable transfectants were selected on medium supplemented with 500 μg/ml Geneticin (Invitrogen). The four GLI1-knocked down clones chosen were based on the extent of GLI1 knockdown and were termed KO1, KO2, KO3, and KO4. The expression of OPN was restored in the KO1 cells by transfecting with pcDNA3.1-OPN. A corresponding vector-only transfectant was also generated. Transfectants were selected on medium containing Geneticin (500 μg/ml) and hygromycin (750 μg/ml). Serum-free conditioned medium harvested from approximately 3.0×10^6 cells after 24 hr was assayed for OPN by immunoblotting.
Quantitative RT-PCR (qRT-PCR)—cDNA was generated using High Capacity Reverse Transcriptase Kit (Applied Biosystems, Foster City, Calif.). Real time PCR was performed using a Bio-Rad iQ5 Real-Time Detection system (Bio-Rad). All reactions were done as three independent replicates. All assays were done using the TaqMan Gene Expression Assays from Applied Biosystems. OPN (SPP1: Hs 00959010_m1) transcript levels were normalized to glyceraldehyde-3-phosphate dehydrogenase (Hs 99999905_m1) levels (δCT), which was used to calculate changes in OPN expression (2^−δδCT). […] GLI1 and SHH (Hs 00179843_m1) expressions were also similarly assessed with glyceraldehyde-3-phosphate dehydrogenase as an endogenous control. To analyze the knockdown effectiveness, “scrambled transfectants” of MDA-MB-435 was set as calibrator.

Compound | levels of CTSK [1] | levels of MMP9 [1] | levels of OPN [1] | ability of osteoclasts to resorb matrix (RAW264.7 cells [2]; cyclopamine (20 μM), stimulated with breast cancer conditioned medium) | c-fos protein levels (c-jun) | phosphorylated c-jun (Ser 73) (c-jun) | phosphorylated c-jun (Thr 91, Thr 93) (c-jun) | expression of c-jun protein in nuclear fractions (c-jun; 0-72 hr) | phosphorylated c-jun (Ser 63) (c-jun; 0-72 hr) | c-jun protein levels (c-jun; cytosolic and nuclear fractions) | ability of tumor cells to induce osteoclast differentiation (RAW264.7 cells [3]; conditioned medium from MDA-MB-435 cells treated with cyclopamine) | ability of osteoclasts to differentiate (RAW264.7 cells [3]; cyclopamine (20 μM), DM and breast cancer cell-conditioned medium) | levels of OPN mRNA (OPN mRNA; MCC012A cells) | levels of OPN mRNA (OPN mRNA; MCC012F cells) | levels of OPN mRNA (OPN mRNA; MDA-MB-435 cells) | resorption activity of differentiated osteoclasts (RAW264.7 cells [2]; DM with OPN (100 ng/ml) or SHH (100 nM)) | numbers of multinucleate TRAP-positive cells (RAW264.7 cells [3]; DM supplemented with OPN (100 ng/ml) or SHH (100 nM) vs DM) | OPN transcript levels, rescue of cyclopamine inhibition (OPN mRNA; MDA-MB-435 cells, cyclopamine 20 μM, after 12 hr medium with recombinant SHH (100 nM))
CC1=C2C[C@H]3[C@@H](CC=C4C[C@@H](O)CC[C@@]43C)[C@@H]2CC[C@]12O[C@@H]1C[C@H](C)CN[C@H]1[C@H]2C [cyclopamine] | significantly decreased | significantly decreased | significantly decreased | significantly (*p<0.0001) compromises their ability to resorb matrix | increased substantially at 6 hr | gradual increase in levels at 24 hour, 48 hr, and 72 hr | peak levels at 6 hr | peaked at 48 hr | no substantial expression was detected over 72 hr | increased in cytosolic and nuclear fractions at 48 hr and 72 hr | significant reduction | significantly (*p<0.0001) compromises their ability to differentiate | decreases the levels of OPN mRNA | decreases the levels of OPN mRNA | decreases the levels of OPN mRNA in a dose-dependent manner |  |  | 
SHH: recombinant Sonic Hedgehog ligand (R & D Systems) |  |  |  |  |  |  |  |  |  |  |  |  |  |  |  | significantly (* indicates p<0.001) increases the resorption activity | potentiates differentiation; also recorded: stimulate osteoclast differentiation; also recorded: significantly (* indicates p<0.005) increases | able to rescue the inhibitory effects of cyclopamine
